For test [1], the target named is Serine/threonine-protein kinase WNK4 (Homo sapiens) (UniProt Q96J92). The test can be described thus: Inhibition of WNK4 (unknown origin) assessed as residual activity at 1000 nM by KINOMEscan analysis relative to control.
The subject of test [2] is Receptor-type tyrosine-protein kinase FLT3 (Homo sapiens), P36888 [D835V]. Description: Inhibition of FLT3 D835V mutant (unknown origin) assessed as residual activity at 1000 nM by KINOMEscan analysis relative to control.
Test [3] deals with T1, cAMP-dependent protein kinase catalytic subunit PRKX (Homo sapiens) (UniProt P51817).
T1 sequence (whole entry): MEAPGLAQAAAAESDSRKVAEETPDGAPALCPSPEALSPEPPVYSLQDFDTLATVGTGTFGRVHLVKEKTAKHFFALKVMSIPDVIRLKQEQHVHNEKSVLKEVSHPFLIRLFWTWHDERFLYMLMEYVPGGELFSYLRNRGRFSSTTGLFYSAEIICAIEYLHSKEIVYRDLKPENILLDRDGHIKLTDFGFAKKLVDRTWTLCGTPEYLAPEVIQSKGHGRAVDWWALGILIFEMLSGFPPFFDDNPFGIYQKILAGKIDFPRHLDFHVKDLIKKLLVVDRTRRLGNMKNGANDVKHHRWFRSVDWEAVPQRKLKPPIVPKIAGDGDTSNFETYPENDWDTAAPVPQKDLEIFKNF
The test can be described thus: Inhibition of PRKX (unknown origin) assessed as residual activity at 100 nM by KINOMEscan analysis relative to control.

In test [4] the target is Transient receptor potential cation channel subfamily M member 6 (Homo sapiens) (UniProt Q9BX84). The test can be described thus: Inhibition of TRPM6 (unknown origin) assessed as residual activity at 100 nM by KINOMEscan analysis relative to control.
Chain of Transient receptor potential cation channel subfamily M member 6 (Homo sapiens) (Q9BX84 whole entry): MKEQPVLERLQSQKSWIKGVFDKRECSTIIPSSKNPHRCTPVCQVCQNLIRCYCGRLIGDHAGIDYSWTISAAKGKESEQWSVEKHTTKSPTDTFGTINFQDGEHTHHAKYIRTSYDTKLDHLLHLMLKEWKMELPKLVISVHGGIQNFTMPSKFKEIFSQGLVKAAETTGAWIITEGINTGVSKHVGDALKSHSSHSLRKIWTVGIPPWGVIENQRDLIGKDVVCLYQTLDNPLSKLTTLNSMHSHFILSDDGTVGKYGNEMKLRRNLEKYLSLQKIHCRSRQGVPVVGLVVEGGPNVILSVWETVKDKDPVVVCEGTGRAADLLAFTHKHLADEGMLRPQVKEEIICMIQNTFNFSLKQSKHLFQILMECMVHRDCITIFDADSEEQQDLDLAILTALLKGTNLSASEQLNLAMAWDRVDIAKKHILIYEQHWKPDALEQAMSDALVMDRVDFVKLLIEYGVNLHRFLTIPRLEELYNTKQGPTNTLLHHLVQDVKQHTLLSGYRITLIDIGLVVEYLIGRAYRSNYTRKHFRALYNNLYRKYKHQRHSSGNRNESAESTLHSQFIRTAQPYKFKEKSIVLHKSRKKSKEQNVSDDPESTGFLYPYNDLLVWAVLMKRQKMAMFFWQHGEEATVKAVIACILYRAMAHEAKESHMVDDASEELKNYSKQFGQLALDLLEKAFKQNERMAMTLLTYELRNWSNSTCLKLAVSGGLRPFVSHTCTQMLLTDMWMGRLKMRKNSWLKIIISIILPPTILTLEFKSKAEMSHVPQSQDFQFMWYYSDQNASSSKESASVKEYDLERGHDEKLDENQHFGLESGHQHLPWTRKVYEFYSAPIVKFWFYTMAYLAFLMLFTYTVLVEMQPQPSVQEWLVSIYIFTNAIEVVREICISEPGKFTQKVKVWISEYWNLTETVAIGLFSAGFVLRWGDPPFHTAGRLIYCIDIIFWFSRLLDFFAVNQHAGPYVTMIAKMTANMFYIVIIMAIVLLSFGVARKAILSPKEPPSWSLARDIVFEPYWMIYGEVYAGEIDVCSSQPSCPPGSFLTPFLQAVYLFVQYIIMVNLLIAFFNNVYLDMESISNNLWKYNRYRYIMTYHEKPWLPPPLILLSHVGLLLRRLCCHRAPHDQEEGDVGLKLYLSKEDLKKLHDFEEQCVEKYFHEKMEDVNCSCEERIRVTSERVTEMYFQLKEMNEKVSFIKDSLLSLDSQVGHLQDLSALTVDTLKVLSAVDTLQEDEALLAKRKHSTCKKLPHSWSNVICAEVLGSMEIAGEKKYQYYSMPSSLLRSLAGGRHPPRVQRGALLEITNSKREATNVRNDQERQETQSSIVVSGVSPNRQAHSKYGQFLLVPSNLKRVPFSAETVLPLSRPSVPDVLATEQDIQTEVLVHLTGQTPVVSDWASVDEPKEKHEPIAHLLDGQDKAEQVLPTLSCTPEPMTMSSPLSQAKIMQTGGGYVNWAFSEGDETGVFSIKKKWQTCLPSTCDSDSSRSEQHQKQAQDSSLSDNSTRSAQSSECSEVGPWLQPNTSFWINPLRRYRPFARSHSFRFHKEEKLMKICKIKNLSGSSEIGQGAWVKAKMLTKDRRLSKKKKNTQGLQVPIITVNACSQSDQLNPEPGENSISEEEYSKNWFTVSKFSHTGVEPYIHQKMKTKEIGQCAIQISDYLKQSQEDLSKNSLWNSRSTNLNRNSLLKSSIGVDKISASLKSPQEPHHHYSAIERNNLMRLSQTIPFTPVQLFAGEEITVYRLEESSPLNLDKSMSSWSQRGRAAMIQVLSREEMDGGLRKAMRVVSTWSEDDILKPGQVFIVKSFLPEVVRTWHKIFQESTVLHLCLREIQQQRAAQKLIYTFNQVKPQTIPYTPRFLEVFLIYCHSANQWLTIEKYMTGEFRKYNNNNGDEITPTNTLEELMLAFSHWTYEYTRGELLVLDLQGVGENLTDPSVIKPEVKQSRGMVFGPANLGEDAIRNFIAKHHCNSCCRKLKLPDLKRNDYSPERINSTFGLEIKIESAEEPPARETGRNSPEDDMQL
Test [5] concerns Tyrosine-protein kinase ABL1 (Homo sapiens), P00519 [T315I]. The test can be described thus: Inhibition of nonphosphorylated ABL1 T315I mutant (unknown origin) assessed as residual activity at 100 nM by KINOMEscan analysis relative to control.
Test [6] concerns the target T2, Inhibitor of nuclear factor kappa-B kinase subunit epsilon (Homo sapiens) (UniProt Q14164).
T2 sequence (whole entry): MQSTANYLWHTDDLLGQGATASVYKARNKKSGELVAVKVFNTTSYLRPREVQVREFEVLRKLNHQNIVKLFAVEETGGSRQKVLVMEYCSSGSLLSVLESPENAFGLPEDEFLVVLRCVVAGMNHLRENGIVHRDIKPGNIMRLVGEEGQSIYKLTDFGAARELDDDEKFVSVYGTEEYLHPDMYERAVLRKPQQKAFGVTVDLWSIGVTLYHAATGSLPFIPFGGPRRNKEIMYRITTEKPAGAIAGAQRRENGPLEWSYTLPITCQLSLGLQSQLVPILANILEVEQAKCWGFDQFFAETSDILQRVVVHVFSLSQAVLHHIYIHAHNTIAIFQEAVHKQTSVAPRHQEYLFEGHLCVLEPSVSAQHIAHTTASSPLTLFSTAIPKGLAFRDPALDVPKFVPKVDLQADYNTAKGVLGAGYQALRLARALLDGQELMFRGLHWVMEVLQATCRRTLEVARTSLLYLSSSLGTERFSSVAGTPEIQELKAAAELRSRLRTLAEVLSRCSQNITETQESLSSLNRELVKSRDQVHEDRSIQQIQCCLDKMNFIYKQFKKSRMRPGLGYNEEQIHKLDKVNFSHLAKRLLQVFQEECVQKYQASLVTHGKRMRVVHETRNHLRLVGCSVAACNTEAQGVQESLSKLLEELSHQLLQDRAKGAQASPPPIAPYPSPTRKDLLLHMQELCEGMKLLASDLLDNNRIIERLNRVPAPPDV
The test can be described thus: Inhibition of IKK-epsilon (unknown origin) assessed as residual activity at 100 nM by KINOMEscan analysis relative to control.

Test [7] concerns the target Receptor-type tyrosine-protein kinase FLT3 (Homo sapiens) (UniProt P36888). The test can be described thus: Inhibition of autoinhibited FLT3 (unknown origin) assessed as residual activity at 100 nM by KINOMEscan analysis relative to control.
Test [8] addresses Mitogen-activated protein kinase kinase kinase 4 (Homo sapiens) (UniProt Q9Y6R4). Description: Inhibition of MAP3K4 (unknown origin) assessed as residual activity at 100 nM by KINOMEscan analysis relative to control.
Test [9] concerns the target MAP kinase-activated protein kinase 2 (Homo sapiens) (UniProt P49137). Description: Inhibition of MAPKAPK2 (unknown origin) assessed as residual activity at 100 nM by KINOMEscan analysis relative to control.
The target in test [10] is T3, Cyclin-dependent kinase-like 2 (Homo sapiens) (UniProt Q92772).
T3 sequence (whole entry): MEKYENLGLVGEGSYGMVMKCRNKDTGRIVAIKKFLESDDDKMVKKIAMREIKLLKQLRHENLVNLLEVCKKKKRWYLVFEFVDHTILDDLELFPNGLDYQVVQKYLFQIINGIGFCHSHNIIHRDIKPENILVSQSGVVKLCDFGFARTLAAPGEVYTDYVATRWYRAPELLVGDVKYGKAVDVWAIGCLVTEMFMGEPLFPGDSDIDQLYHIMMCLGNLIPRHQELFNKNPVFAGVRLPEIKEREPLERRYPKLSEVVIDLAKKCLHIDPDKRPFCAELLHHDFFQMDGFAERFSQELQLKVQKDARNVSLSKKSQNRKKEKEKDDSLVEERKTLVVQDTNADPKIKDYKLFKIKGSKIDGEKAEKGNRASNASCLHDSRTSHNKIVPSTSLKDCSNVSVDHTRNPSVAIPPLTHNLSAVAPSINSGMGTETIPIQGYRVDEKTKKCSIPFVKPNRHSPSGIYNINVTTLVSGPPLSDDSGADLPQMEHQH
The test can be described thus: Inhibition of CDKL2 (unknown origin) assessed as residual activity at 100 nM by KINOMEscan analysis relative to control.

For test [11], the target named is Serine/threonine-protein kinase MRCK beta (Homo sapiens) (UniProt Q9Y5S2). Description: Inhibition of MRCKB (unknown origin) assessed as residual activity at 100 nM by KINOMEscan analysis relative to control.
Test [12] deals with SRSF protein kinase 1 (Homo sapiens) (UniProt Q96SB4). Description: Inhibition of SRPK1 (unknown origin) assessed as residual activity at 100 nM by KINOMEscan analysis relative to control.
Chain of SRSF protein kinase 1 (Homo sapiens) (Q96SB4 whole entry): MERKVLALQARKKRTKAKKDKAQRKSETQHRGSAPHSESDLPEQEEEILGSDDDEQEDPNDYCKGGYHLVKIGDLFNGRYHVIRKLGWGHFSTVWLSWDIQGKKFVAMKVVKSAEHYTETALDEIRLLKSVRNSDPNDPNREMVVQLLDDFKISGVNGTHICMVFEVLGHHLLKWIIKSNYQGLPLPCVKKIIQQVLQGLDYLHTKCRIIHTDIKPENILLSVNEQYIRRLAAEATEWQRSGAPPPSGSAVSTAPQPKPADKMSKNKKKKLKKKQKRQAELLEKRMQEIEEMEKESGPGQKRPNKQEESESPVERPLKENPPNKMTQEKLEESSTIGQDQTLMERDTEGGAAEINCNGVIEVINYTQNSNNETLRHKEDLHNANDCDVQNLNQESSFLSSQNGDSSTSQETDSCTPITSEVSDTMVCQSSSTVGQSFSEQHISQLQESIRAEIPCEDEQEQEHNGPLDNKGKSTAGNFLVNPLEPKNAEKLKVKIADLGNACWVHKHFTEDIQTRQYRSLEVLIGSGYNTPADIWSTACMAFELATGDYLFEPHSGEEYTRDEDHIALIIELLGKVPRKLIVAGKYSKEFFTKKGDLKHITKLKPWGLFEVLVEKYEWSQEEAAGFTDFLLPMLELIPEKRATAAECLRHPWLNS
The test system of test [13] is Tyrosine-protein kinase ABL1 (Homo sapiens), P00519 [E255K]. Description: Inhibition of phosphorylated ABL1 E255K mutant (unknown origin) assessed as residual activity at 100 nM by KINOMEscan analysis relative to control.
In test [14] the target is Death-associated protein kinase 2 (Homo sapiens) (UniProt Q9UIK4). Description: Inhibition of DAPK2 (unknown origin) assessed as residual activity at 100 nM by KINOMEscan analysis relative to control.
Test [15] has as its target Tyrosine-protein kinase receptor UFO (Homo sapiens) (UniProt P30530). The test can be described thus: Inhibition of AXL (unknown origin) assessed as residual activity at 100 nM by KINOMEscan analysis relative to control.

Molecules are shown by their SMILES.

Chain of Serine/threonine-protein kinase WNK4 (Homo sapiens) (Q96J92 whole entry): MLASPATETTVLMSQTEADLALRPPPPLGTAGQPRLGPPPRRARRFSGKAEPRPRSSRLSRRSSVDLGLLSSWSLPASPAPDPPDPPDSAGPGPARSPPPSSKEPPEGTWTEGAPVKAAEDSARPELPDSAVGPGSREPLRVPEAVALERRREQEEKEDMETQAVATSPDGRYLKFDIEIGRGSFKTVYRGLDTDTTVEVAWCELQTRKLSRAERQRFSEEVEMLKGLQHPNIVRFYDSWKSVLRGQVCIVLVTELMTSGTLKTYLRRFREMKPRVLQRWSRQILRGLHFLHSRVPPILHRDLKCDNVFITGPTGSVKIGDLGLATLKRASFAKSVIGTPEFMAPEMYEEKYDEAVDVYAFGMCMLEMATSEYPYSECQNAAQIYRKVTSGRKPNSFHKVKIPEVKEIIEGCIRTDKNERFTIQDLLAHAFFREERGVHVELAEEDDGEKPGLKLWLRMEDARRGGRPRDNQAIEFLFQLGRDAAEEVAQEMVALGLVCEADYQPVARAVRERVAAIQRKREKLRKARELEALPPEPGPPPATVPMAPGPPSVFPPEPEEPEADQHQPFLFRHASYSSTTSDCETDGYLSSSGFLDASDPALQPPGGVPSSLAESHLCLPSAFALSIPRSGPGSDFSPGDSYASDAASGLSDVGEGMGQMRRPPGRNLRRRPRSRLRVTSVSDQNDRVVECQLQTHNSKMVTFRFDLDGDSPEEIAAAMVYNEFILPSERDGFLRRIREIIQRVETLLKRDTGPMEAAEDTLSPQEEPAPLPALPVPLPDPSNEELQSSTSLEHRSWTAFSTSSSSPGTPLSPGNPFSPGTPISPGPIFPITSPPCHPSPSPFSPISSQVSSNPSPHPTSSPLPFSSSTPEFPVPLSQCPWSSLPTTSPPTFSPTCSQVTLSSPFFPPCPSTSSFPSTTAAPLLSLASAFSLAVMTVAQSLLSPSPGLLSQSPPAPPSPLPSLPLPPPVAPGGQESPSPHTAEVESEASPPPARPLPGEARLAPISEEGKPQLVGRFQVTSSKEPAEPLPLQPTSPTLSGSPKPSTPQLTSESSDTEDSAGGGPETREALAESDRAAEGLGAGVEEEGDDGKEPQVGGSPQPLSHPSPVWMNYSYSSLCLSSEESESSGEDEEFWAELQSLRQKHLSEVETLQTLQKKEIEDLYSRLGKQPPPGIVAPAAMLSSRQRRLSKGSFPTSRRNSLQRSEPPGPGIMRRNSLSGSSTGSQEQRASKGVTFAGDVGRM
Chain of Tyrosine-protein kinase receptor UFO (Homo sapiens) (P30530 whole entry): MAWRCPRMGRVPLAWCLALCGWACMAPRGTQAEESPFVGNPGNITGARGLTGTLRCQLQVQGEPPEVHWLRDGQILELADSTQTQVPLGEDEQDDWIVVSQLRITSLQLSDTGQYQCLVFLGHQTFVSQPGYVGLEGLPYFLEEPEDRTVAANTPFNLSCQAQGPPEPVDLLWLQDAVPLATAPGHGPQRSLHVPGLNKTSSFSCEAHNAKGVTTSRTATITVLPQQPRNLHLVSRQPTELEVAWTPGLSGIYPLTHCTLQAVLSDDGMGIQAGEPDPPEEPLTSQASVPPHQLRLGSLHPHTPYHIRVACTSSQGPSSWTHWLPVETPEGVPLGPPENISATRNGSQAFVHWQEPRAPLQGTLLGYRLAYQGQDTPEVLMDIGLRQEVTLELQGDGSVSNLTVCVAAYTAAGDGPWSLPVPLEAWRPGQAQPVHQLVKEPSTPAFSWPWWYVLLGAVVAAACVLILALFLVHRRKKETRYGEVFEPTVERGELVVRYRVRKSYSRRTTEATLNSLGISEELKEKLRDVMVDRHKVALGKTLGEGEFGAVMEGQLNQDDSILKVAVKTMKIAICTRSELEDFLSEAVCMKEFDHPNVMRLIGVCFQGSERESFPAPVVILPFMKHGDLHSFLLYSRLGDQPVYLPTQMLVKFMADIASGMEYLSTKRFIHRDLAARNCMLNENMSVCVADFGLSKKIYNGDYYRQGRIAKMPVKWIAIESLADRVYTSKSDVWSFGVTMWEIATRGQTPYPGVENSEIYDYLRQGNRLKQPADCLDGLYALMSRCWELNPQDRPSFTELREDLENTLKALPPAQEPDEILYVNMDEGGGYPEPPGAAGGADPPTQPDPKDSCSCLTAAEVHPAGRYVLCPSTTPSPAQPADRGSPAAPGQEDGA

On to `COc1cc2nc(C)nc(N[C@H](C)c3cccc(-c4cn[nH]c4)c3)c2cc1OC`, for which the Activity in test [1] and in test [2] was 100% throughout.

Consider `COc1cc2ncnc(N[C@H](C)c3cccc4ccccc34)c2cc1OC`, for which the Activity in [3] is 100%; in test [4] it was 84%; in test [5], 100%; in test [6], 100%; in test [7] it was 88%; in [8] it was 68%. Besides, the Activity came out at 83% in test [9]; 88% in test [10]; 82% in test [11]; 95% in test [12]; 99% in test [13]; 100% in test [14]. In test [15], the Activity is 86%.
